Experiment [1] concerns PE tumors. Kind of experiment: Flow cytometry of immune cells in PE tumors and tumor-drainage lymph nodes. The class given is in vivo, mouse. The conditions noted are these: single-agent treatment; FIG. 30B. As for the experimental part:
To obtain single-cell suspension from tumor mass, tumors were excised, minced and dissociated in collagenase buffer (DMEM supplemented with 5% FBS, 10 mM HEPES [Gibco), 100 μg/mL penicillin-streptomycin, 20 μg/mL DNase I [StemCell] and 1× collagenase/hyaluronidase [StemCell]) at 37° C. for 45 min. Tumor-draining lymph nodes were isolated from tumor-bearing mice and were mashed through 70 μm strainer using plunger of a syringe to obtain single-cell suspension.
For FACS staining, tissue cells were first stained with LIVE/DEAD Fixable Aqua Dead Cell Stain (Thermo Fisher) for 30 min on ice, followed by blocking with anti-CD16/32 (BioLegend) for 20 minutes on ice. Afterwards, cells were incubated with antibodies targeting surface biomarkers in FACS buffer for 30 minutes on ice.

The subject of experiment [2] is TAMs co-cultured with CD8^+ T cells. In words: Co-culture of TAMs with CD8^+ T cells. Format: cell-based, mouse. As to conditions: TAMs pre-treated with MSA-2 33 μM, washed off; FIG. 34A. How it is done: Tumor associated macrophages (TAMs) were isolated from ETP tumors using a mouse CD11b^+ myeloid cell isolation kit (StemCell, #18970) and seeded in 48-well plate at the density of 1×10^5 cells/well, cultured in DMEM growth medium (DMEM+10% FBS+100 μg/mL penicillin-streptomycin) supplemented with 10 ng/ml mouse M-CSF (BioLegend, #576404) and allowed to adhere overnight. TAMs were then treated with or without MSA-2 at the concentration of 33 μM in the median mentioned above for 2 days. MSA-2 was washed off before coculturing TAM with CD8^+ T cells. Mouse CD8^+ T cells were isolated from spleens of FVB/NJ mice using a mouse CD8+ T cell isolation kit (StemCell, #19853) and seeded in the same 48-well plate at the density of 1×10^5 cells/well, cultured alone or cocultured with TAMs in RPMI 1640 supplemented with 10% FBS, 10 ng/ml mouse M-CSF (BioLegend, #576404), 0.055 mM 2-mercaptoethanol, 2 ng/ml IL-2 (Peprotech), 2.5 ng/ml IL-7 (Peprotech) and 50 ng/ml IL-15 (Peprotech) for 2 days. After that, T cells were collected for flow cytometry analysis.

The test system of experiment [3] is BP tumor cells. Kind of experiment: DNA damage in BP tumor cells (cytosolic dsDNA staining, γ-H2AX flow cytometry). The class given is cell-based, mouse. How it is done:
For flow cytometry analyses of tumor and TDLN samples, single-cell suspensions were obtained as described above (Tissue Digestion). Cells were stained in cold FACS buffer (PBS containing 0.2% BSA and 5 mM EDTA) with LIVE/DEAD Fixable Aqua Dead Cell Stain (Thermo Fisher) for 30 min on ice, followed by blocking with anti-CD16/32 (BioLegend) for 20 min on ice. Cells were then incubated in FACS buffer for 30 min on ice with antibodies specific to CD45 (clone 30-F11, BioLegend), TCR β chain (clone H57-597, BioLegend), CD38 (clone 145-2C11, BioLegend), CD4 (clone RM4-5, BioLegend), CD8a (clone 53-6.7, BioLegend), PD-1 (clone 29F.1A12, BioLegend), CD44 (clone IM7, BioLegend), CD62L (clone MEL-14, BioLegend), IFN-γ (clone XMG1.2, BioLegend), TNF-α (clone MP6-XT22, BioLegend), Granzyme B (clone NGZB, eBioscience), CD11c (clone N418, BioLegend), I-A/I-E (clone M5/114.15.2, BioLegend), CD80 (clone 16-10A1, BioLegend), CD86 (clone GL-1, BioLegend), CD103 (clone 2E7, BioLegend), CD11b (M1/70, BioLegend), F4/80 (clone BM8, BioLegend), phospho-TBK1 (Ser172) (clone D52C2, Cell Signaling Tech.) or phospho-IRF-3 (Ser396) (clone D601M, Cell Signaling Tech.). For intracellular staining, Foxp3/Transcription Factor Staining Buffer Set (eBioscience, #00-5523-00) was used for fixation and permeabilization. For cytokine analysis, cells were stimulated with Leukocyte Activation Cocktail with protein transport inhibitor Brefeldin A (BD Biosciences, #550583) at 37° C. for 4 hours prior to the staining. Analysis of ϵ-HA2X (Ser139) was performed according to manufacturer's instructions. Briefly, ice-cold 70% ethanol (Decon) was added dropwise to the cell pellet while vortexing. Cells were then incubated at −20° C. for 1 hour and washed three times with cold staining buffer. […] All data were analyzed using FlowJo software.
BRCA1-deficient tumor cells were cultured on glass coverslips in 6-well plates. […] Fluorescence intensity of cytosolic dsDNA were analyzed using ImageJ/Fiji software as described in Pantelidou C, et al. Cancer Discov 2019; 9 (6): 722-37.

`COc1cc2cc(C(=O)CCC(=O)O)sc2cc1OC` [MSA-2]: the “tumor immune microenvironment of large PE tumors” value in experiment [1] is “did not significantly affect”. Also, the “TAM-mediated suppression of CD8^+ T cells (cytokine production)” value in experiment [2] is listed as “reversed TAM-mediated suppression of CD8^+ T cells”. Regarding `Cc1ccc2c(=O)c3cccc(CC(=O)O)c3oc2c1C` [DMXAA, 5,6-dimethyl-xanthenone-4-acetic acid], the “BP cells' DNA damage (gH2AX) in response to olaparib” value in experiment [3] (BP cells treated with CM of DMXAA-pre-treated TEMs, FIG. 7I) was “restored”. As for `O=C(c1cc(Cc2n[nH]c(=O)c3ccccc23)ccc1F)N1CCN(C(=O)C2CC2)CC1` [olaparib], the “cytosolic dsDNA” value in experiment [3] (5 μM olaparib, two days, FIG. 5B) is “induced accumulation of cytosolic dsDNAs”. The γ-H2AX entry in experiment [3] (olaparib, FIG. 5C) is reported as “two-fold increase”.

These data come from patent US20250009743A1, “METHODS OF TREATING CANCERS USING STING AGONISTS” (Dana-Farber Cancer Institute, Inc., priority 2021, published 2025).
